PMC8440459 (Neurotoxicology, 2021)
Entries after “also recorded” stand apart in the source; their conditions may differ. Values belong to the molecule of their own block, whether it stands above or below them.

Columns and labels:
equine liver GST [1] = biological target: T1, equine liver GST (Equus caballus, UniProt A0A9L0RPC4); test: Nitro blue tetrazolium staining of equine liver GST; conditions: 1mM protectant
equine liver GST [2] = biological target: T1, equine liver GST; test: Protection of GST activity from DOPAL, DA or DOPAC; format: biochemical; conditions: 1mM protectant, 100μM DA
[3] = biological target: bovine serum albumin (BSA) (Bos taurus, UniProt P02769); test: Nitro blue tetrazolium staining of BSA modified by DOPAL; conditions: 0.5mg/mL BSA, 4 hours at 37°C, L-cysteine effect at 1mM
equine liver GST [4] = biological target: T1, equine liver GST; test: Reversibility of equine liver GST inhibition; format: biochemical; conditions: for Reversibility of inhibition of GST activity: 100μM inhibitor, with or without size exclusion column; for GST activity after application to Bio-Spin 6 Tris Columns / Inhibition of GST after incubation with known reversible inhibitor: 500μM, data not shown; for GST activity after application to Bio-Spin 6 Tris Columns: after column; for Inhibition of GST after incubation with known reversible inhibitor: before column
equine liver GST [5] = biological target: T1, equine liver GST; test: Time dependency of equine liver GST inhibition; format: biochemical; conditions: for GST activity after 24-hour incubation: 100μM inhibitor, compared with 4 hours; for Time dependency of inhibition of GST activity: aliquots after 1, 2 and 4 hours of incubation
[6] = biological target: GST isolated from N27 dopaminergic cells (Rattus norvegicus, UniProt P04906); test: CDNB assay of GST isolated from N27 cells; format: biochemical
equine liver GST [7] = biological target: T1, equine liver GST; format: biochemical; conditions: 4 hours at 37°C
dopaminergic cells = conditions: ref Schamp and Doorn, 2017; cited from earlier work

Chain of GST isolated from N27 dopaminergic cells (P04906 whole entry): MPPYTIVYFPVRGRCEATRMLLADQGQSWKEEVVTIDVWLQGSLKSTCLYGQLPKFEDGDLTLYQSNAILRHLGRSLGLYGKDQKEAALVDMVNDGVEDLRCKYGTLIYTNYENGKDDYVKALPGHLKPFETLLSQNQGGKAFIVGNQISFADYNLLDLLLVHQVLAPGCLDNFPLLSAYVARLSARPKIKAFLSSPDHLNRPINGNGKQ
Chain of bovine serum albumin (BSA) (P02769 25-607): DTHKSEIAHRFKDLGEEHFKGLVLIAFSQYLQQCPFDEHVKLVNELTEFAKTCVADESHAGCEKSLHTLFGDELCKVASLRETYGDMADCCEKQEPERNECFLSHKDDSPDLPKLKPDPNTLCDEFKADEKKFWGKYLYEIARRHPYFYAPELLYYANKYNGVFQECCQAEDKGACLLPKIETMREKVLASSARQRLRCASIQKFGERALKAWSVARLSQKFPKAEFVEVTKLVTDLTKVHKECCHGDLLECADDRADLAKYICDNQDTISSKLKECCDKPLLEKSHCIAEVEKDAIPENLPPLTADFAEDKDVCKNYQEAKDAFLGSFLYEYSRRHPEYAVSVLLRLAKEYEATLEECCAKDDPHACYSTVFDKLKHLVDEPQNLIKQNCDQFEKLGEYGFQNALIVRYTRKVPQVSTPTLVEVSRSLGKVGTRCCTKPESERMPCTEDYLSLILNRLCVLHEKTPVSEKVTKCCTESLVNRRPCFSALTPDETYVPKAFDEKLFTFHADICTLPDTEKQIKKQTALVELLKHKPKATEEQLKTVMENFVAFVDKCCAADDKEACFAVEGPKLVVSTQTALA

Protection against modification of equine liver GST by 100 μM DOPAL (NBT stain) (equine liver GST [1]): moderately protective
SMILES: NCCC(=O)N[C@@H](Cc1cnc[nH]1)C(=O)O [Carnosine, carnosine]
Protection of GST activity against inhibition by DA (equine liver GST [2]): significant protection; also recorded: partial activity retention | Reduction of NBT staining of BSA modified by 200μM DOPAL [3]: did not significantly reduce protein modification

SMILES: NCCc1ccc(O)c(O)c1 [DA, dopamine]
Reversibility of inhibition of GST activity (equine liver GST [4]): irreversible | GST activity after 24-hour incubation (equine liver GST [5]): almost completely nulls enzyme activity | Time dependency of inhibition of GST activity (equine liver GST [5]): time dependent | IC50 [6]: 82.3 µM

SMILES: O=C(O)Cc1ccc(O)c(O)c1 [DOPAC, 3,4-dihydroxyphenylacetic acid]
Reversibility of inhibition of GST activity (equine liver GST [4]): irreversible | Time dependency of inhibition of GST activity (equine liver GST [5]): time dependent | IC50 [6]: 260 µM

Reversibility of inhibition of GST activity (equine liver GST [4]): irreversible | GST activity after 24-hour incubation (equine liver GST [5]): almost completely nulls enzyme activity | Time dependency of inhibition of GST activity (equine liver GST [5]): time dependent | Concentration giving significant inhibition of commercially available GST (equine liver GST [7]): 5 µM | IC50 [6]: 31.5 µM
SMILES: O=CCc1ccc(O)c(O)c1 [DOPAL, 3,4-dihydroxyphenylacetaldehyde]
Concentration toxic to dopaminergic cells (dopaminergic cells): 7 µM

Reduction of NBT staining of BSA modified by 200μM DOPAL [3]: significantly reduced NBT staining
SMILES: N[C@@H](CS)C(=O)O [L-cysteine]

Inhibition of GST after incubation with known reversible inhibitor (equine liver GST [4]): significant inhibition
SMILES: CCCCCCSC[C@H](NC(=O)CC[C@H](N)C(=O)O)C(=O)NCC(=O)O [S-hexylglutathione]
GST activity after application to Bio-Spin 6 Tris Columns (equine liver GST [4]): regained the full value of its original activity

Inhibition of GST after incubation with known reversible inhibitor (equine liver GST [4]): significant inhibition
SMILES: O=C(O)/C=C/c1ccc(O)c(O)c1 [caffeic acid]
GST activity after application to Bio-Spin 6 Tris Columns (equine liver GST [4]): regained the full value of its original activity
